Test results: patent US20240301408A1, “MICRORNA 195 COMPOSITIONS AND METHODS FOR TREATING COGNITIVE IMPAIRMENT” (UNITED STATES GOVERNMENT AS REPRESENTED BY THE DEPARTMENT …, priority 2021, published 2024)

Test system: BV2 cells
Assay: LPS-induced pro-inflammatory cytokine release (IL-6, TNFα) in BV2 microglia with miR-195-5p over-expression
Assay type: cell-based
Experimental: For example, LPS (at 0.2 μg/ml) treatment for overnight in BV2 cells leads to increased expression of pdcd4 and smad7 (FIG. 13A) and reduced expression of il10ra (FIG. 13C). […] Over-expression of miR-195-5p also attenuates LPS-induced pro-inflammatory cytokine release (IL-6 and TNFα; FIG. 13B). […] For these experiments, purified exosomes were derived from human APOE3/3 and 4/4 iPSC-derived astrocytes w/wo miR-195 over-expression detected by an exosome marker, ALIX. Fluorescence labeled exosomes were taken up by IBA1+ microglia cells.
Over-expression of miR-195-5p in microglia inhibits LPS-induced proinflammatory responses and augments anti-inflammatory responses. […] However, over-expression of miR-195-5p reduces expression levels of pdcd4 and smad7 and increases il10a expression in the presence of LPS. Over-expression of miR-195-5p also attenuates LPS-induced pro-inflammatory cytokine release (IL-6 and TNFα; FIG. 17B).

UAGCAGCACAGAAAUAUUGGC (chemistry not given here) [miR-195-5p, over-expressed via AAV2-containing miR-195-5p from ABM Inc]
LPS-induced pro-inflammatory cytokine release (IL-6 and TNFα): attenuates
